Experimental data as given in patent US20210371804A1, “Videomicroscopy of contractile cell cultures and cell culture methods using same” (Institut de Cardiologie de Montréal, priority 2020, published 2021).

Tested on: neonatal cardiomyocytes
Assay: Videomicroscopy of contraction (composite signal ΔS) of neonatal cardiomyocyte monolayers
Type: cell-based, rat
Details: 1 minute after injection
Method: All animal-handling procedures were concordant with the Canadian Council on Animal Care guidelines and were approved by the institutional Animal Research Ethics Committee. Isolation was performed according to the protocol of the neonatal cardiomyocyte isolation kit from Worthington. In summary, one to three days old rats (Sprague-Dawley, Charles River) were sacrificed by decapitation. Beating heart were removed from the rats and immediately put in cold Ca^2+ and Mg^2+-free Hank's Balanced Salt Solution. Ventricular muscle was selected by excision and tissue was minced on ice into 1-3 mm^3 pieces. The mixture was subjected to purified enzymatic digestion (trypsin and collagenase). Isolated cells (enriched cardiomyocytes) were counted and seeded at a density of 10^6 cells/mL in the seeding area of the membrane pre-coated with 0.2% porcine-derived gelatin (G1890, Sigma) and 0.00125% fibronectin solution (F1141, Sigma). Cells were grown for 24 hours in DMEM (319-050-CL, Wisent) with 5% fetal bovine serum (FBS, SH30396.03, Fisher Scientic Co. Ltd) and 1% penicillin/streptomycin (450-201-EL, Wisent). Cardiomyocytes were then FBS starved with 1% penicillin/streptomycin in DMEM 24 h prior to the experiments. Acute effects of the β-adrenergic agonist, isoproterenol (ISO, 16504, Sigma-Aldrich) was studied by videomicroscopy with final concentration of 100 nM at 1 minute after injection. […]

Structure (SMILES): CC(C)NCC(O)c1ccc(O)c(O)c1 (centres unmarked) [ISO, isoproterenol]
- slope of the linear regression of <RatioC/R> as a function of <T> (ISO 100 nM, 0.146 for CTL, <T> and group effects p<0.001): 0.490
- period of activity (ISO final concentration 100 nM, vs. 1.9±2.4 s in CTL, p<0.05): 0.9 ± 0.6 s
